A value given as a limit tells only on which side of the number the result lay.

For orientation: AC50 means the concentration at which the activity in the assay is half-maximal. Lower therefore signals activity at low concentration.

For one assay, the target named is D(1A) dopamine receptor (Homo sapiens, UniProt P21728). The assay is classed as functional, cell-based.
The target in assay [1] is Beta-1 adrenergic receptor (Homo sapiens, UniProt P08588). Type of assay: functional.
The target of assay [2] is Gamma-aminobutyric acid receptor subunit alpha-1 (Rattus norvegicus, UniProt P62813).
Chain of Gamma-aminobutyric acid receptor subunit alpha-1 (P62813 whole entry): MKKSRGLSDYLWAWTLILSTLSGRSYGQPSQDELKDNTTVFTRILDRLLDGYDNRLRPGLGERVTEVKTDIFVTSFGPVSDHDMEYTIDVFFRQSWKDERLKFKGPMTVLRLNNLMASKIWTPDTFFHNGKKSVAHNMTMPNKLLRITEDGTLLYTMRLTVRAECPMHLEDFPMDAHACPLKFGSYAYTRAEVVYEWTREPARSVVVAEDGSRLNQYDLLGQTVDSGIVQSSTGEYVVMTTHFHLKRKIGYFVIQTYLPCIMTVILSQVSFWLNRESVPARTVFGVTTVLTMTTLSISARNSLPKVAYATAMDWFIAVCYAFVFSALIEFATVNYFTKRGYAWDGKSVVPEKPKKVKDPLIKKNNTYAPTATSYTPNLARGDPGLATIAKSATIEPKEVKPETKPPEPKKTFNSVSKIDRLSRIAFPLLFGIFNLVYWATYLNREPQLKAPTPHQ
Assay [3] has as its target T1, Amine oxidase [flavin-containing] A (Homo sapiens, UniProt P21397).
T1 sequence (P21397 whole entry): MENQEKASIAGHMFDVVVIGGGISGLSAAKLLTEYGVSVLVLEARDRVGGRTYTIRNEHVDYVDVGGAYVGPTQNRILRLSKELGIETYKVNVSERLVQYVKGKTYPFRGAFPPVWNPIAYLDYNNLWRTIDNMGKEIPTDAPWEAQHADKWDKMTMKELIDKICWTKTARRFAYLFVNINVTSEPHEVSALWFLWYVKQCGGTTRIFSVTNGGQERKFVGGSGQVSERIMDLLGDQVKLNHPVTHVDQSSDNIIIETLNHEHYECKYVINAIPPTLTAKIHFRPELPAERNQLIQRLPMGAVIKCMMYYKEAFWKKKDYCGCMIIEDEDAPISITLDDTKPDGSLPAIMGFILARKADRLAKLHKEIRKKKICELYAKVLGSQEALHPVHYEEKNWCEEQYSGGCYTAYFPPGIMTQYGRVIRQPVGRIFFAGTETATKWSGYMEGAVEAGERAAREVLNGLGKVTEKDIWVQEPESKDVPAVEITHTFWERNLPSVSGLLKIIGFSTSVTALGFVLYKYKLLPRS
Type of assay: functional.

The next assay concerns the target Histamine H2 receptor (Homo sapiens, UniProt P25021). The assay is classed as functional, cell-based.
The target in assay [4] is T2, Cholecystokinin receptor type A (Homo sapiens, UniProt P32238).
T2 sequence (P32238 whole entry): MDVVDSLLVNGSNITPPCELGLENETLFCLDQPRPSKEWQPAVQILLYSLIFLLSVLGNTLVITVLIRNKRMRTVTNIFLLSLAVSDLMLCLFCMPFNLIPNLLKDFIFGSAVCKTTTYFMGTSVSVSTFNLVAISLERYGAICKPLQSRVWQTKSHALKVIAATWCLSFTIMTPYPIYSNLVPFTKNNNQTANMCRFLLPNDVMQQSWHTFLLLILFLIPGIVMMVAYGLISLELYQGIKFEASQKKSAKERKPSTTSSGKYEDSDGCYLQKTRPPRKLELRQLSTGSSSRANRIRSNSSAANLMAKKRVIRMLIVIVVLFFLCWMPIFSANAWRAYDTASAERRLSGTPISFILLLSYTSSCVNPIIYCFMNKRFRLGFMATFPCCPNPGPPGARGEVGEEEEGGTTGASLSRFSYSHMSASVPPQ

Assay [5] addresses T3, 5-hydroxytryptamine receptor 3A (Homo sapiens, UniProt P46098).
T3 sequence (P46098 whole entry): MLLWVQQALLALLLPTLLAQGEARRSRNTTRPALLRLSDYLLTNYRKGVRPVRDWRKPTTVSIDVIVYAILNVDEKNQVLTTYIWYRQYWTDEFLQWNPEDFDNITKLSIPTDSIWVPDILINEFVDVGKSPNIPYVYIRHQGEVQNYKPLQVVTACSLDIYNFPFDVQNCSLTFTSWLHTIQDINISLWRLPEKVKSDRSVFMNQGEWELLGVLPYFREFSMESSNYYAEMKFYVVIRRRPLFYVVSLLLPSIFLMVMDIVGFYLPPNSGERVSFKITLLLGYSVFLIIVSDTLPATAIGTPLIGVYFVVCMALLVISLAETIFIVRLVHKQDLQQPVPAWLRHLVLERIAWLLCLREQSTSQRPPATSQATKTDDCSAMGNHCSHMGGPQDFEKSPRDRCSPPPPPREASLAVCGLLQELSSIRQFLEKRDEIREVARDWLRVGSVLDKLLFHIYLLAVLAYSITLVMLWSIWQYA
The assay is classed as functional.

Assay [6] has as its target T4, 5-hydroxytryptamine receptor 2A (Homo sapiens, UniProt P28223). The assay is classed as functional, cell-based.
Assay [7] concerns the target T4, 5-hydroxytryptamine receptor 2A. Type of assay: functional, cell-based. The source holds these as a separate data set.
Another assay has as its target Mu-type opioid receptor (Homo sapiens, UniProt P35372). The assay is described as follows: biochemical. Type of assay: functional.
The next assay deals with Histamine H3 receptor (Homo sapiens, UniProt Q9Y5N1).
Chain of Histamine H3 receptor (Q9Y5N1 whole entry): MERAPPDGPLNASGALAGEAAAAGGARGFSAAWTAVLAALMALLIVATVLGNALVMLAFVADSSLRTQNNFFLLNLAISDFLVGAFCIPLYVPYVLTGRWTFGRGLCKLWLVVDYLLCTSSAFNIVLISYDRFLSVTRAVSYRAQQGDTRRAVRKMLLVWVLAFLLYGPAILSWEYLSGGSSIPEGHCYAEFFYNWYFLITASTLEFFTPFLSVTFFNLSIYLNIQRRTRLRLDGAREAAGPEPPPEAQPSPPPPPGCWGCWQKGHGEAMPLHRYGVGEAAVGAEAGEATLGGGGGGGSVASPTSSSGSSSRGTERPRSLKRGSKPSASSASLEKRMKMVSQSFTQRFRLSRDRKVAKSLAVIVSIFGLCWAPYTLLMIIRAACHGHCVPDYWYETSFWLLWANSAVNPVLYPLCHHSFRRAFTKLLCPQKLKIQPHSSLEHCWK
Further: assay procedure not described here.

Chain of Mu-type opioid receptor (P35372 whole entry): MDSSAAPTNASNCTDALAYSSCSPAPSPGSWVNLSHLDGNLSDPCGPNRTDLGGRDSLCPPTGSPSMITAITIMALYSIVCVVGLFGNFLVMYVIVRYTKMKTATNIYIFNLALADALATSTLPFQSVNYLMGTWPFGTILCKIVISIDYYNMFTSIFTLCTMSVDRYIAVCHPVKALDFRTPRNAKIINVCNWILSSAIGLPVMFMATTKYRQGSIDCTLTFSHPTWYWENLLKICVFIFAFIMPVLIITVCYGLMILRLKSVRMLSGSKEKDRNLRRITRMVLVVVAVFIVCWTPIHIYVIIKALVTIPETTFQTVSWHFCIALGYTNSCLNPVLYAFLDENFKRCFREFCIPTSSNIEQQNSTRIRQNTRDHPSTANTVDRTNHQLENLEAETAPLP
T4 sequence (P28223 whole entry): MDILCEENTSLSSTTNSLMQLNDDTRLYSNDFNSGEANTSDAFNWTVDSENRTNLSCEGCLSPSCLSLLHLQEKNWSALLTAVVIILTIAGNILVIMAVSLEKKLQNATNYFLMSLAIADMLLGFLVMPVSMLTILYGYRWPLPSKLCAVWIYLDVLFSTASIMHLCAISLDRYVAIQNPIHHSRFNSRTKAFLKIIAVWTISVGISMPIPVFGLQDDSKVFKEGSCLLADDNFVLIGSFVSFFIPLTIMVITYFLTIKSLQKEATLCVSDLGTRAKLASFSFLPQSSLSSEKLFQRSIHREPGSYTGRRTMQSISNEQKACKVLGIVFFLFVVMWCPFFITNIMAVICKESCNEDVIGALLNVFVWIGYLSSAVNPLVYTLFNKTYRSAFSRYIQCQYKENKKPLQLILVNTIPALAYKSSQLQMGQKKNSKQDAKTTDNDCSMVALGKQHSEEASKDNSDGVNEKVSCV
Chain of D(1A) dopamine receptor (P21728 whole entry): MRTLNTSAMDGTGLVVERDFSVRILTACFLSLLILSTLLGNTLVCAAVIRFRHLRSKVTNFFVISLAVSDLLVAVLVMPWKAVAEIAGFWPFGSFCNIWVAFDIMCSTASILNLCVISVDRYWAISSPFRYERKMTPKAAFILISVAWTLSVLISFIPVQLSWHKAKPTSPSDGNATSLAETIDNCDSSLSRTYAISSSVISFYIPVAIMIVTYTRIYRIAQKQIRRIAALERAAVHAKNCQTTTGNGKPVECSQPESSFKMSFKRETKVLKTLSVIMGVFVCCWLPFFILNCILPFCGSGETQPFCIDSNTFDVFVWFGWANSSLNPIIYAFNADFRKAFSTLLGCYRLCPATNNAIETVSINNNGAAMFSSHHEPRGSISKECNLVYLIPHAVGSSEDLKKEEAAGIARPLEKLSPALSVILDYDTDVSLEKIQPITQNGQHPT
Chain of Histamine H2 receptor (P25021 whole entry): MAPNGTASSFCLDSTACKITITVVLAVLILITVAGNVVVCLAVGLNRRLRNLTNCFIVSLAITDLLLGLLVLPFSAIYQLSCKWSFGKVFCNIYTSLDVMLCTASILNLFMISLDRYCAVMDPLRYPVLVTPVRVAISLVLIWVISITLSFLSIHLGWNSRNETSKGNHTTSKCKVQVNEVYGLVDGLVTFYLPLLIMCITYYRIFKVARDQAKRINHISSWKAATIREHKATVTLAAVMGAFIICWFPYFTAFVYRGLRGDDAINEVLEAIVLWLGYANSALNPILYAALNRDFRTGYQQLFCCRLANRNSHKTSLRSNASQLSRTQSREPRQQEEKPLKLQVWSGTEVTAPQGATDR
Chain of Beta-1 adrenergic receptor (P08588 whole entry): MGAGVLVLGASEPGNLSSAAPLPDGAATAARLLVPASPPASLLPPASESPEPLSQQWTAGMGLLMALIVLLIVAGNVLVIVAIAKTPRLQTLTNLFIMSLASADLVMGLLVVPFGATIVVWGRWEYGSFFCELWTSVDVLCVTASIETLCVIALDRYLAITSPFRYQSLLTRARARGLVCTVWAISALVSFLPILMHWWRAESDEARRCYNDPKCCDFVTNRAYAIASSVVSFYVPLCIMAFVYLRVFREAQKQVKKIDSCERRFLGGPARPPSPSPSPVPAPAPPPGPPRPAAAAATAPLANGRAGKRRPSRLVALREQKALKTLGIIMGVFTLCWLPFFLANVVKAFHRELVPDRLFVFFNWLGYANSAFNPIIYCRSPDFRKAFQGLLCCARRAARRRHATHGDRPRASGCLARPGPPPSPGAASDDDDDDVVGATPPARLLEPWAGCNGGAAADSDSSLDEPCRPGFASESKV

In the case of `CNS(=O)(=O)Cc1ccc2[nH]cc(CCN(C)C)c2c1`, the AC50 at D(1A) dopamine receptor is over 30 µM; in assay [1] it was over 10 µM; in [2], over 30 µM; in assay [3], over 30 µM; at Histamine H2 receptor, over 30 µM; in assay [4], over 30 µM.
`C[C@]1(O)CC[C@H]2[C@@H]3CCC4=CC(=O)CC[C@]4(C)[C@@]3(F)[C@@H](O)C[C@@]21C` [FLUOXYMESTERONE]: the half-maximal activity concentration (AC50) is over 30 µM at D(1A) dopamine receptor; over 10 µM in [1]; over 30 µM in [5]; over 10 µM in assay [2]; over 30 µM in assay [3]; over 10 µM in [6]. Also, the AC50 in [7] was over 10 µM; on Histamine H2 receptor it was over 30 µM; at Mu-type opioid receptor, over 30 µM; in [4], over 10 µM.
Regarding `Nc1nc(N)nc(-c2cc(Cl)ccc2Cl)n1` [IRSOGLADINE], the half-maximal activity concentration (AC50) (on D(1A) dopamine receptor; in assay [1]; in assay [3]; on Histamine H3 receptor; on Histamine H2 receptor; on Mu-type opioid receptor) was over 30 µM in each case. Besides, the concentration at half-maximal activity (AC50) in assay [4] is over 30 µM.
As to `CCCN(CCC)C(=O)C(CCC(=O)O)NC(=O)c1ccccc1` (configuration not stated) [PROGLUMIDE], the concentration at half-maximal activity (AC50) is over 30 µM at D(1A) dopamine receptor; over 30 µM in assay [1]; over 30 µM in assay [5]; over 10 µM in assay [2]; over 30 µM in assay [3]; over 30 µM at Histamine H3 receptor. Also, the concentration at half-maximal activity (AC50) (on Histamine H2 receptor; on Mu-type opioid receptor; in [4]) was over 30 µM in each case.
In the case of `CCCC(=O)O[C@]1(C(=O)CO)CC[C@H]2[C@@H]3CCC4=CC(=O)CC[C@]4(C)[C@H]3[C@@H](O)C[C@@]21C` [HYDROCORTISONE BUTYRATE], the AC50 on D(1A) dopamine receptor was over 10 µM; in assay [1], over 10 µM; in assay [5] it was over 30 µM; in assay [2] it was over 10 µM; in [3], over 10 µM; in assay [6], over 10 µM. Further, the half-maximal activity concentration (AC50) (in [7]; on Histamine H2 receptor; in assay [4]) was over 10 µM throughout.
As for `C[C@](N)(Cc1ccc(O)c(O)c1)C(=O)O` [METHYLDOPA], the concentration at half-maximal activity (AC50) is over 30 µM on D(1A) dopamine receptor; over 10 µM in assay [1]; over 30 µM in assay [5]; over 10 µM in assay [2]; over 10 µM in assay [3]; over 30 µM at Histamine H2 receptor. Moreover, the AC50 on Mu-type opioid receptor is over 30 µM; in [4] it was over 10 µM.
Turning to `CCCc1nc(C(C)(C)O)c(C(=O)OCc2oc(=O)oc2C)n1Cc1ccc(-c2ccccc2-c2nnn[nH]2)cc1` [OLMESARTAN MEDOXOMIL], the AC50 at D(1A) dopamine receptor is over 10 µM; in assay [1], over 10 µM; in assay [5] it was over 10 µM; in [2] it was over 10 µM; in [3], over 10 µM; in assay [6], over 30 µM. Also, the AC50 was over 10 µM on Histamine H2 receptor and over 50 µM in assay [4].
For the compound `O=C(NCCN1CCOCC1)c1ccc(Cl)cc1` [MOCLOBEMIDE], the concentration at half-maximal activity (AC50) on D(1A) dopamine receptor is over 10 µM; in assay [1] it was over 10 µM; in assay [5], over 30 µM; in [2] it was over 10 µM; on Histamine H2 receptor, over 10 µM; at Mu-type opioid receptor it was over 30 µM. This compound also gave an AC50 in assay [4] of over 10 µM.
On to `O=C(O)CCCCCCCC(=O)O` [AZELAIC ACID], for which the AC50 is over 30 µM at D(1A) dopamine receptor; over 10 µM in [1]; over 30 µM in assay [5]; over 10 µM in assay [2]; over 10 µM in [3]; over 10 µM in [6]. Moreover, the AC50 in [7] was over 10 µM; on Histamine H2 receptor it was over 30 µM; at Mu-type opioid receptor, over 30 µM; in [4] it was over 10 µM.
Consider `C[C@]12CC[C@H]3[C@@H](CCC4=CC(=O)CC[C@@]43C)[C@@H]1CC[C@@H]2O` [TESTOSTERONE], for which the half-maximal activity concentration (AC50) at D(1A) dopamine receptor is over 30 µM; in assay [1], over 10 µM; in assay [5], over 30 µM; in [2], over 10 µM; in assay [3], over 10 µM; at Histamine H2 receptor, over 30 µM. Moreover, the results for the AC50 (at Mu-type opioid receptor; in assay [4]) were over 30 µM and over 10 µM, respectively.
Regarding `CNC(C)CCC=C(C)C` (configuration not stated) [ISOMETHEPTENE], the AC50 (in assay [1]; on Histamine H3 receptor; in assay [4]) was over 30 µM throughout.
Consider `C#C[C@]1(O)CC[C@H]2[C@@H]3CCc4cc(OC5CCCC5)ccc4[C@H]3CC[C@@]21C` [QUINESTROL], for which the AC50 was over 10 µM on D(1A) dopamine receptor; over 10 µM in assay [1]; over 30 µM in assay [5]; over 10 µM in assay [2]; over 10 µM in assay [3]; over 10 µM in assay [6]. The AC50 in assay [7] is over 10 µM; at Histamine H2 receptor, over 10 µM; at Mu-type opioid receptor it was over 30 µM; in assay [4] it was over 10 µM.
Turning to `Cn1c(=O)c2c(ncn2CC2OCCO2)n(C)c1=O` [DOXOFYLLINE], the AC50 (at D(1A) dopamine receptor; in assay [1]; in assay [5]; in assay [2]; in [3]; on Histamine H3 receptor) was over 30 µM each time. Moreover, the concentration at half-maximal activity (AC50) (on Histamine H2 receptor; on Mu-type opioid receptor; in [4]) was over 30 µM in each case.
As to `N#Cc1ccc([C@H]2CCc3cncn32)c(F)c1` [OSILODROSTAT], the half-maximal activity concentration (AC50) (in [1]; in [5]; in assay [2]; at Histamine H3 receptor; in assay [4]) was over 10 µM each time.
In the case of `CCCCc1ncc(/C=C(\Cc2cccs2)C(=O)O)n1Cc1ccc(C(=O)O)cc1` [EPROSARTAN], the AC50 on D(1A) dopamine receptor is over 30 µM; in assay [1], over 10 µM; in assay [5], over 10 µM; in assay [2], over 10 µM; in assay [3], over 10 µM; in [6], over 30 µM. Further, the concentration at half-maximal activity (AC50) was over 10 µM on Histamine H3 receptor, over 30 µM in assay [7], over 10 µM at Histamine H2 receptor and over 30 µM in [4].
For `CCN(CC)C(=O)N[C@H]1C[C@@H]2c3cccc4[nH]cc(c34)C[C@H]2N(C)C1` [TERGURIDE], the AC50 was 0.049 µM on D(1A) dopamine receptor; 3.2 µM in [1]; over 30 µM in assay [5]; over 30 µM in [2]; over 30 µM in assay [3]; 0.48 µM in assay [6]. The AC50 on Histamine H3 receptor is over 30 µM; on Histamine H2 receptor, 15 µM; at Mu-type opioid receptor, over 30 µM; in assay [4], over 30 µM.
For the compound `CC(=O)O[C@H]1CC[C@@]2(C)C(=CC[C@@H]3[C@@H]2CC[C@]2(C)C(c4cccnc4)=CC[C@@H]32)C1` [ABIRATERONE ACETATE], the AC50 (at D(1A) dopamine receptor; in assay [1]; in assay [5]; in assay [3]; in assay [6]; on Histamine H3 receptor) was over 30 µM in each case. The AC50 (in assay [7]; at Histamine H2 receptor; at Mu-type opioid receptor; in [4]) was over 30 µM throughout.
Turning to `C/C(O)=C(\C#N)C(=O)Nc1ccc(C(F)(F)F)cc1` [TERIFLUNOMIDE], the half-maximal activity concentration (AC50) is over 30 µM on D(1A) dopamine receptor; over 30 µM in [1]; over 30 µM in [5]; 4.9 µM in assay [3]; over 30 µM in assay [6]; over 30 µM at Histamine H3 receptor. Also, the figures for the AC50 in assay [7] and in [4] were 28 µM and over 30 µM, respectively.

(Values after ChEMBL document CHEMBL5291721, “A preclinical secondary pharmacology resource illuminates target-adverse drug reaction associations of marketed drugs” (Nat Commun, 2023).)
